Active and inactive are the calls of the source. No cut-off for these calls is given here.
Assay: Inhibition of ECE

IC50 [µM] | Activity | SMILES
9 | – | CC1(C)C=Cc2c(ccc3c2O[C@@H](O)[C@@H]2c4ccc(O)cc4O[C@H]32)O1 [DALEFORMIS]
– | inactive | CC(=O)Oc1ccc2c(c1)O[C@@H]1c3ccc4c(c3O[C@@H](OC(C)=O)[C@H]21)C=CC(C)(C)O4

— ChEMBL document CHEMBL1145720, “Daleformis, a new phytoalexin from the roots fo Dalea filiciformis: an inhibitor of endothelin converting enzyme” (J Nat Prod, 1997)
